System: SMARTCAR-MTH1-wt-HiBiT (Jurkat.7 cells)
Assay: HiBit Lytic Assay (HiBit DC50, MTH1 degraders of Table 2)
Type: cell-based, human
Conditions: Jurkat.7 SMARTCAR-MTH1-wt-HiBiT cells, compound treatment time 4 hr, 11-point half log dose response
Procedure, shortened: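 Jurkat.7 cells expressing SMARTCAR-MTH1-wt-HiBiT were treated at 37° C with 11-point half-log dilutions (top final 1000 nM or 833 nM, duplicates, 0.1% DMSO). Remaining HiBiT-tagged protein was read by Nano-Glo HiBiT lytic luminescence, normalized to media-only and DMSO controls.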

DC50 [nM] | Compound
< 100 | CNC(=O)c1cnc2cc(OC)c(-c3ccc(C(=O)NCCCCNC(=O)COc4cccc5c4C(=O)N(C4CCC(=O)NC4=O)C5=O)cc3)cc2c1Nc1ccccc1 (centres unmarked) [Compound 475, 6-(4-((4-(2-((2-(2,6-dioxopiperidin-3-yl)-1,3-dioxoisoindolin-4-yl)oxy)acetamido)butyl)carbamoyl)phenyl)-7-methoxy-N-methyl-4-(phenylamino)quinoline-3-carboxamide]
< 100 | CNC(=O)c1cnc2cc(C(F)(F)F)c(-c3ccc(C(=O)NCCCCn4cc(CNc5cccc6c5C(=O)N(C5CCC(=O)NC5=O)C6=O)nn4)nc3)cc2c1Nc1ccccc1 (centres unmarked) [Compound 386, 6-(6-((4-(4-(((2-(2,6-dioxopiperidin-3-yl)-1,3-dioxoisoindolin-4-yl)amino)methyl)-1H-1,2,3-triazol-1-yl)butyl)carbamoyl)pyridin-3-yl)-N-methyl-4-(phenylamino)-7-(trifluoromethyl)quinoline-3-carboxamide]
< 100 | CNC(=O)c1cnc2ccc(-c3ccc(C(=O)NCCCCNC(=O)COc4cccc5c4C(=O)N(C4CCC(=O)NC4=O)C5=O)c(C)c3)cc2c1Nc1ccccc1 (centres unmarked) [Compound 354, 4-anilino-6-[4-[4-[[2-[2-(2,6-dioxo-3-piperidyl)-1,3-dioxo-isoindolin-4-yl]oxyacetyl]amino]butylcarbamoyl]-3-methyl-phenyl]-N-methyl-quinoline-3-carboxamide]
< 100 | O=C1CCC(N2C(=O)c3cccc(OCc4cn(CCCCNC(=O)c5ccc(-c6cc7c(Nc8ccccc8)c(C(=O)NC8CC8)cnc7cc6F)cc5F)nn4)c3C2=O)C(=O)N1 (centres unmarked) [Compound 413, 4-anilino-N-cyclopropyl-6-[4-[4-[4-[[2-(2,6-dioxo-3-piperidyl)-1,3-dioxo-isoindolin-4-yl]oxymethyl]triazol-1-yl]butylcarbamoyl]-3-fluoro-phenyl]-7-fluoro-quinoline-3-carboxamide]
< 100 | CNC(=O)c1cnc2ccc(-c3ccc(C(=O)NCCCCNC(=O)COc4cccc5c4C(=O)N(C4CCC(=O)NC4=O)C5=O)c(F)c3)cc2c1Nc1ccccc1 (centres unmarked) [Compound 351, 4-anilino-6-[4-[4-[[2-[2-(2,6-dioxo-3-piperidyl)-1,3-dioxo-isoindolin-4-yl]oxyacetyl]amino]butylcarbamoyl]-3-fluoro-phenyl]-N-methyl-quinoline-3-carboxamide]
< 100 | CNC(=O)c1cnc2cc(C(F)(F)F)c(-c3ccc(C(=O)NCCCCNC(=O)COc4cccc5c4C(=O)N(C4CCC(=O)NC4=O)C5=O)c(F)c3)cc2c1Nc1ccccc1 (centres unmarked) [Compound 379, 6-(4-((4-(2-((2-(2,6-dioxopiperidin-3-yl)-1,3-dioxoisoindolin-4-yl)oxy)acetamido)butyl)carbamoyl)-3-fluorophenyl)-N-methyl-4-(phenylamino)-7-(trifluoromethyl)quinoline-3-carboxamide]
< 100 | CNC(=O)c1cnc2ccc(C(=O)NCCCCCCCCNC(=O)COc3cccc4c3C(=O)N(C3CCC(=O)NC3=O)C4=O)cc2c1Nc1ccccc1 (centres unmarked) [Compound 453, N6-(8-(2-((2-(2,6-dioxopiperidin-3-yl)-1,3-dioxoisoindolin-4-yl)oxy)acetamido)octyl)-N3-methyl-4-(phenylamino)quinoline-3,6-dicarboxamide]

Continued, compound first:

Compound | DC50 [nM]
CNC(=O)c1cnc2ccc(CNC(=O)CCCCCCCCNC(=O)COc3cccc4c3C(=O)N(C3CCC(=O)NC3=O)C4=O)cc2c1Nc1ccccc1 (centres unmarked) [Compound 456, 6-((9-(2-((2-(2,6-dioxopiperidin-3-yl)-1,3-dioxoisoindolin-4-yl)oxy)acetamido)nonanamido)methyl)-N-methyl-4-(phenylamino)quinoline-3-carboxamide] | < 100
NC(=O)c1cnc2ccc(-c3ccc(C(=O)NCCCNC(=O)CNc4cccc5c4C(=O)N(C4CCC(=O)NC4=O)C5=O)cc3)cc2c1Nc1ccccc1 (centres unmarked) [Compound 307, 6-(4-((3-(2-((2-(2,6-dioxopiperidin-3-yl)-1,3-dioxoisoindolin-4-yl)amino)acetamido)propyl)carbamoyl)phenyl)-4-(phenylamino)quinoline-3-carboxamide] | < 100
CNC(=O)c1cnc2ccc(-c3ccc(C(=O)NCCCCn4cc(CNc5cccc6c5C(=O)N(C5CCC(=O)NC5=O)C6=O)nn4)cc3)cc2c1Nc1ccccc1 (centres unmarked) [Compound 356, 4-anilino-6-[4-[4-[4-[[[2-(2,6-dioxo-3-piperidyl)-1,3-dioxo-isoindolin-4-yl]amino]methyl]triazol-1-yl]butylcarbamoyl]phenyl]-N-methyl-quinoline-3-carboxamide] | < 100
CNc1c(C(=O)NC2CC2)cnc2cc(OC)c(-c3ccc(C(=O)NCCCCn4cc(CNc5cccc6c5C(=O)N(C5CCC(=O)NC5=O)C6=O)nn4)nc3)cc12 (centres unmarked) [Compound 397, N-cyclopropyl-6-[6-[4-[4-[[[2-(2,6-dioxo-3-piperidyl)-1,3-dioxo-isoindolin-4-yl]amino]methyl]triazol-1-yl]butylcarbamoyl]-3-pyridyl]-7-methoxy-4-(methylamino)quinoline-3-carboxamide] | < 100
CNC(=O)c1cnc2ccc(NCCCCCCCCCCNC(=O)COc3cccc4c3C(=O)N(C3CCC(=O)NC3=O)C4=O)cc2c1NCc1ccccc1 (centres unmarked) [Compound 448, 4-(benzylamino)-6-((10-(2-((2-(2,6-dioxopiperidin-3-yl)-1,3-dioxoisoindolin-4-yl)oxy)acetamido)decyl)amino)-N-methylquinoline-3-carboxamide] | < 100
COc1cc2ncc(C(=O)NC3CC3)c(Nc3ccccc3)c2cc1-c1ccc(C(=O)NCCCCn2cc(COc3cccc4c3C(=O)N(C3CCC(=O)NC3=O)C4=O)nn2)c(F)c1 (centres unmarked) [Compound 414, 4-anilino-N-cyclopropyl-6-[4-[4-[4-[[2-(2,6-dioxo-3-piperidyl)-1,3-dioxo-isoindolin-4-yl]oxymethyl]triazol-1-yl]butylcarbamoyl]-3-fluoro-phenyl]-7-methoxy-quinoline-3-carboxamide] | < 100
CNC(=O)c1cnc2ccc(NCCCCCCCCCCNC(=O)C(C)Nc3cccc4c3C(=O)N(C3CCC(=O)NC3=O)C4=O)cc2c1Nc1ccccc1 (centres unmarked) [Compound 444, 6-((10-(2-((2-(2,6-dioxopiperidin-3-yl)-1,3-dioxoisoindolin-4-yl)amino)propanamido)decyl)amino)-N-methyl-4-(phenylamino)quinoline-3-carboxamide] | < 100
CN(CC(=O)NCCOCCNC(=O)c1ccc(-c2ccc3ncc(C(N)=O)c(Nc4ccccc4)c3c2)cc1)c1cccc2c1C(=O)N(C1CCC(=O)NC1=O)C2=O (centres unmarked) [Compound 311, 4-anilino-6-[4-[2-[2-[[2-[[2-(2,6-dioxo-3-piperidyl)-1,3-dioxo-isoindolin-4-yl]-methyl-amino]acetyl]amino]ethoxy]ethylcarbamoyl]phenyl]quinoline-3-carboxamide] | < 1000
CNC(=O)c1cnc2ccc(NCCCCCCCCCCNC(=O)C(C)Oc3cccc4c3C(=O)N(C3CCC(=O)NC3=O)C4=O)cc2c1Nc1ccccc1 (centres unmarked) [Compound 442, 6-((10-(2-((2-(2,6-dioxopiperidin-3-yl)-1,3-dioxoisoindolin-4-yl)oxy)propanamido)decyl)amino)-N-methyl-4-(phenylamino)quinoline-3-carboxamide] | < 100
CN(CC(=O)NCCCCNC(=O)c1ccc(-c2ccc3ncc(C(N)=O)c(Nc4ccccc4)c3c2)cc1)c1cccc2c1C(=O)N(C1CCC(=O)NC1=O)C2=O (centres unmarked) [Compound 301, 4-anilino-6-[4-[4-[[2-[[2-(2,6-dioxo-3-piperidyl)-1,3-dioxo-isoindolin-4-yl]-methyl-amino]acetyl]amino]butylcarbamoyl]phenyl]quinoline-3-carboxamide] | < 100
